This is an account of results in patent US20040267283A1, “Method, device and kit for body decoration” (priority 2003, published 2004).

SMILES strings stand for the structures.

For series [1], the system named is swine skin. Put plainly: In-vitro skin penetration, hydrogel patches on stretched skin (vertical diffusion cells without cell tops), tape stripping. Conditions: for Depth of penetration (Tape strips = TS): skin cleaned with 10% lactic acid. It counts as in vitro ADME. As to the method: In the second part of the in-vitro skin penetration study, the color application included the use of a hydrogel patch and dye FD&C Red no. 40 and additional dyes, Acid Blue 1 (Blue V) and Indocyanine green, on the swine skin. All chemicals used were analytical grade, obtained from standard supply houses (Sigma, VWR, etc.). […] In these experiments, the depth of penetration was tested for the additional dyes using iontophoresis and/or electroosmosis. Additionally, extensive work was done in order to establish a shaped tattoo that is sharp and has strong color imprint. The experiments were also directed to the effect of the application duration on the tattoo life span. The following properties of the tattoo were measured to determine the effects of iontophoresis on the dyes and pigments' skin penetration: uniformity of the dyeing by observation; penetration depth by tape stripping; and water durability by washing the skin with tap water.
The experiments performed in this second part of the study are described below. Experiments 2.1-2.8 and 2.10-2.14 were conducted on in-vitro swine skin. Experiments 2.9, 2.15, and 2.16 were conducted on in-vivo human skin. FIGS. 6-14 illustrate the body decoration results from the experiments.
This experiment was conducted to determine the dye penetration depth of stretched skin, as would be the case on the subject's body area. In the vertical diffusion cells without the cell tops, the skin was stretched with the cell clamps. To increase the water content of the hydrogel in the patches, the hydrogel was soaked with ddw for 2 minutes. Excess water was then absorbed. Tissue paper heart-shaped pieces were soaked in Blue V solution (100 mg/ml in ddw). The blue heart shapes were placed on the patches' hydrogel and removed a few seconds later, leaving a blue heart-shaped imprint on the hydrogel. The hydrogel patches with the blue heart-shaped imprint were placed on the skin after the skin was cleaned with 10% lactic acid. In the active experiments, the patch wires were connected to a power supply tuned to 0.5 mAmp (0.5 mAmp/cm^2). […] The dye penetration depth was determined by tape stripping.
Blue heart-shaped tattoos were created, as described before in Experiment 6. This experiment was conducted to sharpen the tattoo by soaking the hydrogel in ddw for only few seconds.
In this experiment, the patches' hydrogel content was changed. Instead of KCl, the hydrogel contained NaCl. 100 mg/ml Blue V in ddw with 10% ethanol was used to create the blue heart-shaped imprint. The assay lasted 20 minutes and was done in duplicates. […] The penetration depth was lower with NaCl than KCl in Experiment 2.6.

For series [2] the following is noted: reason for choosing the additional dyes; cited from earlier work.
The subject of series [3] is human skin. Put plainly: In-vivo human skin tattoo with imprinted hydrogel patches. Conditions: Exp 2.16, human study, star shape, 50 mg/ml in ddw, 0.04 mAmp, 60 min, skin cleaned with 10% lactic acid.
For series [4], the system named is human. Conditions: reason for choosing the additional dyes; cited from earlier work.
Series [5] concerns swine ear skin. The procedure:
An in-vitro skin penetration study was conducted to determine which combination of parameters results in the maximum amount of active substance, e.g., color formulation, being delivered into the skin, i.e., the dermis and epidermis, but not through the skin, i.e., beneath the epidermis.
The in-vitro skin penetration study generally included the following test procedure. Decoration ink, as in embodiments of the present invention, was applied on a piece of swine ear skin. The swine skin was excised to full thickness (epidermis and dermis) to an approximate depth of 500-1000 μm. […]
At the end of the exposure period, the entire receptor compartment was drained and the solution reserved for subsequent analysis of the dye(s) and/or pigment(s). […] The depth of penetration was measured by noting the number of tape strippings required to remove the ink. […] The ink was determined quantitatively using customary analytical procedures (e.g., HPLC, UV-Vis spectrum, GC, radiolabeled detection, etc.), as applicable. […]
In these experiments, the enhancing effect of iontophoresis and/or electroosmosis on skin penetration of different dyes was assessed. […] The following properties were measured to determine the enhancing effect of iontophoretic induction on the dyes' skin penetration: uniformity of the dyeing by observation; and penetration depth by tape stripping. […]

The subject of series [6] is mice. Conditions: cited from earlier work; for Toxicity, LD50: IP in mice.
A short description of series [7]: Solution conductivity of the dyes (current at applied voltage). It counts as physicochemical. As to the method: In the first part of the in-vitro skin penetration study, the color application included the use of dyes D&C Green no. 6, FD&C Blue no. 1, FD&C Yellow no. 6, and FD&C Red no. 40. All chemicals used were analytical grade, obtained from standard supply houses (Sigma, VWR, etc.). The dyes were dissolve in ddw and the solution conductivity was measured using a dedicated apparatus. The target conductivity was defined as a minimum of 1 mAmp/cm^3 current at 3 volts. If such conductivity was not attained, the dye concentration and/or the voltage were increased. See Table 1 for the solubility and conductivity of the dyes.

Series [8] can be described thus: Solubility of the dyes. The format is physicochemical. The procedure: In the first part of the in-vitro skin penetration study, the color application included the use of dyes D&C Green no. 6, FD&C Blue no. 1, FD&C Yellow no. 6, and FD&C Red no. 40. All chemicals used were analytical grade, obtained from standard supply houses (Sigma, VWR, etc.). The dyes were dissolve in ddw and the solution conductivity was measured using a dedicated apparatus. The target conductivity was defined as a minimum of 1 mAmp/cm^3 current at 3 volts. If such conductivity was not attained, the dye concentration and/or the voltage were increased.

A short description of series [9]: Solubility of the dyes. The format is physicochemical. This is another data set of the same source.
In series [10] the test system is rabbit. Conditions: SC in rabbit; cited from earlier work.

Regarding `CCN(CC)c1ccc(C(=C2C=CC(=[N+](CC)CC)C=C2)c2ccc(S(=O)(=O)[O-])cc2S(=O)(=O)[O-])cc1.[Na+]` [Blue V, Acid Blue 1], the “Depth of penetration (Tape strips = TS)” value in series [1] (Exp 2.13, Active, Anode, hydrogel with NaCl, 100 mg/ml in ddw with 10% ethanol, current = 500 μA/cm^2, 20 min) is “Anode - TS# 3”; in series [1] (Exp 2.13, Active, Cathode, hydrogel with NaCl, 100 mg/ml in ddw with 10% ethanol, current = 500 μA/cm^2, 20 min), “Cathode - TS# >4”; in [1] (Exp 2.13, Passive, hydrogel with NaCl, 100 mg/ml in ddw with 10% ethanol, 20 min), “TS# 3”; in series [1] (Exp 2.6, Active, Anode, 100 mg/ml in ddw, stretched skin, current = 500 μA/cm^2, 30 min), “Anode - TS# 5”; in [1] (Exp 2.6, Active, Cathode, 100 mg/ml in ddw, stretched skin, current = 500 μA/cm^2, 30 min), “Cathode - TS# >6”; in [1] (Exp 2.6, Passive, 100 mg/ml in ddw, stretched skin, 30 min), “TS# 4”. The “Depth of penetration (Tape strips = TS)” value in series [1] (Exp 2.8, Active, Anode, 100 mg/ml in ddw, hydrogel soaked in ddw for only few seconds, current = 500 μA/cm^2) is on record as “Anode - TS# 4”; in series [1] (Exp 2.8, Active, Cathode, 100 mg/ml in ddw, hydrogel soaked in ddw for only few seconds, current = 500 μA/cm^2), “Cathode - TS# >7”; in [1] (Exp 2.8, Passive, 100 mg/ml in ddw, hydrogel soaked in ddw for only few seconds), “TS# 4”. The “Penetration depth with NaCl hydrogel compared with KCl hydrogel” value in [1] (Exp 2.13 compared with Exp 2.6) is “lower”. For the same molecule, the Solubility in water result in series [2] is “soluble in water”. Further, the entries for the “Time after which the dye completely faded (tattoo life span)” value in series [3] (Active With polyester) and in [3] (Active Without polyester) were “after 10 days” and “after 7 days”, respectively. In addition, the “Toxicity (approved for human injection)” value in series [4] is on record as “nontoxic”. Further, in series [5], the “Effect of iontophoresis on skin penetration depth” value is “increased”.

Regarding `CCN(Cc1cccc(S(=O)(=O)[O-])c1)c1ccc(C(=C2C=CC(=[N+](CC)Cc3cccc(S(=O)(=O)[O-])c3)C=C2)c2ccccc2S(=O)(=O)[O-])cc1.[Na+].[Na+]` [Blue no. 1, FD&C Blue no. 1], in series [6] (SC in mice), the Toxicity is recorded as 5.5 gm/kg. In addition, the Current entry is “None” in series [7] (2 mg/ml in water, 3 V); “˜0.3 mA” in [7] (6 mg/ml in water, 3 V); 1 mA in series [7] (6 mg/ml in water, 3.92 V); “˜0.4 mA” in series [7] (10 mg/ml in water, 3 V); 1 mA in series [7] (10 mg/ml in water, 3.69 V); “˜0.4 mA” in series [7] (20 mg/ml in water, 3 V). In series [7] (20 mg/ml in water, 3.69 V), this molecule returned a Current of 1 mA. Besides, the Solubility result in series [8] (2 mg/ml in water), in series [8] (6 mg/ml in water), in series [8] (10 mg/ml in water) and in [8] (20 mg/ml in water) was “Soluble” throughout.

Turning to `Cc1ccc(Nc2ccc(Nc3ccc(C)cc3)c3c2C(=O)c2ccccc2C3=O)cc1` [Green no. 6, D&C Green no. 6], the Solubility entry in series [9] (2.5 mg/ml + 30% ethanol), in [9] (10 mg/ml + 30% ethanol) and in [8] (10 mg/ml in water) was “Insoluble” throughout. Besides, the “Toxicity, LD50” value in series [6] is on record as “LD50 = 0.25 gm/kg”.

`CC1(C)C(/C=C/C=C/C=C/C=C2\N(CCCCS(=O)(=O)O)c3ccc4ccccc4c3C2(C)C)=[N+](CCCCS(=O)(=O)[O-])c2ccc3ccccc3c21` [Green, Indocyanine green, reference compound]: the Solubility in water result in [2] is “soluble in water”. Besides, the “Toxicity (approved for human injection)” value in series [4] is “nontoxic”. Moreover, the “Effect of iontophoresis on skin penetration depth” value in series [5] was “not affected”.

Turning to `COc1cc(S(=O)(=O)[O-])c(C)cc1N=Nc1c(O)ccc2cc(S(=O)(=O)[O-])ccc12.[Na+].[Na+]` [Red no. 40, FD&C Red no. 40], the Current result in [7] (10 mg/ml in water, 3 V) was “˜0.3 mA”; in series [7] (10 mg/ml in water, 4.15 V), 1 mA; in series [7] (20 mg/ml in water, 3 V), 1.1 mA. In addition, the Solubility entry in series [8] (10 mg/ml in water) and in series [8] (20 mg/ml in water) was “Soluble” each time. For the same molecule, the “Toxicity, LD50” value in series [10] is recorded as “LD50 > 10 gm/kg,”.

For the molecule `O=S(=O)([O-])c1ccc(N=Nc2c(O)ccc3cc(S(=O)(=O)[O-])ccc23)cc1.[Na+].[Na+]` [Yellow no. 6, FD&C Yellow no. 6], the “Toxicity, LD50” value in series [6] is “LD50 = 4.6 gm/kg”. Besides, in series [7] (20 mg/ml in water, 3 V), the Current turned out to be 1.3 mA.
